Reference: patent US9138465B2, “Pharmaceutical composition for treating lysosomal storage disease” (OSAKA UNIVERSITY, priority 2011, dated 2015)

Legend:
Assay type in all cases: cell-based
[1] = test system: normal skin fibroblast; assay: Enzyme activities in culture supernatants of normal cell + various reagents; conditions: for GALC enzyme activity in culture supernatant / total β-Hex enzyme activity in culture supernatant / α-Fuc enzyme activity in culture supernatant / α-Gal enzyme activity in culture supernatant / α-Gluc enzyme activity in culture supernatant / α-Iduro enzyme activity in culture supernatant / α-Man enzyme activity in culture supernatant / β-Gal enzyme activity in culture supernatant / β-Gluc enzyme activity in culture supernatant / β-Glucuro enzyme activity in culture supernatant / β-Hex A enzyme activity in culture supernatant: NH4Cl 20 mM, CQ 20 uM, Bafilo 20 nM; for excretion of group of lysosomal enzymes compared with no reagent added: Tables 1 and 2
Protocol: In a culture dish with a diameter of 10 cm, a normal skin fibroblast was cultured in a DMEM medium containing 10% FBS (fetal bovine serum) and a recommended amount of an antibiotic and/or an antibacterial agent [Gibco (registered trade name) Antibiotic-Antimycotic, Life Technologies] (hereinafter, referred to as “a standard culture medium”) until the cell became confluent. To the cultured normal skin fibroblast, ammonium chloride was added in such an amount that the concentration of ammonium chloride became 20 mM in the culture medium. Then, the cell was cultured. Seven days after, a culture supernatant was collected, and filtered with a 0.2 μm sterilizing filter to remove large debris and living cells. After the filtration, the activities of lysosomal enzymes contained in the supernatant were measured by a method as described later.
To confirm that the lysosomal enzyme group thus obtained contained lysosomal enzymes, the culture supernatant obtained after addition of ammonium chloride and culture was subjected to measurement of the activities of lysosomal enzymes. As controls, a culture supernatant of a normal skin fibroblast that was cultured without addition of ammonium chloride, and a culture supernatant of an ML-II patient-derived skin fibroblast (hereinafter, referred to as “an ML-II cell”) that was cultured without addition of ammonium chloride were used to measure the activities of lysosomal enzymes in the culture supernatant.
(§1) The activities of lysosomal enzymes were measured by a standard method using an artificial 4-methylumbelliferyl substrate. Briefly, a sample was incubated with the artificial substrate at 37° C. for 1 hour in an acidic phosphate or citrate buffer, and fluorescence was measured on a microplate reader at an excitation wavelength of 365 nm and an emission wavelength of 450 nm. For galactocerebrosidase, 6-hexadecanoylamino-4-methylumbelliferyl β-D-galactopyranoside (Slater and Frith Ltd.) was used as a substrate, and fluorescence was measured at an excitation wavelength of 385 nm and an emission wavelength of 450 nm. The enzyme activities were calculated as nmol/h/μL.
In a culture dish with a diameter of 10 cm, a normal skin fibroblast was cultured in a standard culture medium until the cell became confluent. […] Then, the cell was cultured. Five days after and 7 days after, a culture supernatant was collected, and filtered with a 0.2 μm sterilizing filter to remove large debris and living cells. After the filtration, the activities of lysosomal enzymes contained in the supernatant were measured by the same method as described in Example 1. As a control, a culture supernatant of a normal skin fibroblast that was cultured in a standard culture medium with no addition of any reagents was used to measure the activities of lysosomal enzymes in the culture supernatant.
In Tables 1 and 2, β-Gal means β-galactosidase, total β-Hex means total β-hexosaminidase, β-Hex A means β-hexosaminidase A, β-Gluc means β-glucosidase, α-Man means α-mannosidase, α-Fuc means α-fucosidase, α-Gluc means α-glucosidase, α-Gal means α-galactosidase, β-Glucuro means β-glucuronidase, α-L-Iduro means α-L-iduronidase, and GALC means galactocerebrosidase. SCM means a standard culture medium with no addition of any reagents. […] Bafilo means bafilomycin A1. The enzyme activity is expressed as nmol/h/μL.

[2] = test system: COS-1 cell; assay: Enzyme activities in culture supernatant of COS-1 cell + NH4Cl
Protocol: as §1
In a culture dish with a diameter of 10 cm, a COS-1 cell was cultured in a standard culture medium until the cell became confluent. To the cultured COS-1 cell, ammonium chloride was added in such an amount that the concentration became 20 mM in the culture medium. Then, the cell was cultured. Three days after, a culture supernatant was collected, and filtered with a 0.2 μm sterilizing filter to remove large debris and living cells. After the filtration, the activities of lysosomal enzymes contained in the supernatant were measured by the same method as described in Example 1. As a control, a culture supernatant of a COS-1 cell that was cultured in a standard culture medium with no addition of ammonium chloride was used to measure the activities of lysosomal enzymes in the culture supernatant.
In Table 3, β-Gal means β-galactosidase, total β-Hex means total β-hexosaminidase, β-Hex A means β-hexosaminidase A, β-Gluc means β-glucosidase, α-Man means α-mannosidase, α-Fuc means α-fucosidase, α-Gluc means α-glucosidase, α-Gal means α-galactosidase, β-Glucuro means β-glucuronidase, α-L-Iduro means α-L-iduronidase, and GALC means galactocerebrosidase. NH4Cl(−) means a culture supernatant in the case of no addition of ammonium chloride. NH4Cl(+) means a culture supernatant in the case of addition of ammonium chloride. The enzyme activity is expressed as nmol/h/μL.

[3] = biological target: T1, mannose 6-phosphate receptor (Homo sapiens, UniProt P11717); assay: Competitive inhibition test for mannose 6-phosphate; conditions: ML-II cell, FIG. 4
T1 construct: a mannose 6-phosphate receptor on the cell surface; endogenous in cells; host or cells: ML-II cell
T1 sequence (P11717 41-2491): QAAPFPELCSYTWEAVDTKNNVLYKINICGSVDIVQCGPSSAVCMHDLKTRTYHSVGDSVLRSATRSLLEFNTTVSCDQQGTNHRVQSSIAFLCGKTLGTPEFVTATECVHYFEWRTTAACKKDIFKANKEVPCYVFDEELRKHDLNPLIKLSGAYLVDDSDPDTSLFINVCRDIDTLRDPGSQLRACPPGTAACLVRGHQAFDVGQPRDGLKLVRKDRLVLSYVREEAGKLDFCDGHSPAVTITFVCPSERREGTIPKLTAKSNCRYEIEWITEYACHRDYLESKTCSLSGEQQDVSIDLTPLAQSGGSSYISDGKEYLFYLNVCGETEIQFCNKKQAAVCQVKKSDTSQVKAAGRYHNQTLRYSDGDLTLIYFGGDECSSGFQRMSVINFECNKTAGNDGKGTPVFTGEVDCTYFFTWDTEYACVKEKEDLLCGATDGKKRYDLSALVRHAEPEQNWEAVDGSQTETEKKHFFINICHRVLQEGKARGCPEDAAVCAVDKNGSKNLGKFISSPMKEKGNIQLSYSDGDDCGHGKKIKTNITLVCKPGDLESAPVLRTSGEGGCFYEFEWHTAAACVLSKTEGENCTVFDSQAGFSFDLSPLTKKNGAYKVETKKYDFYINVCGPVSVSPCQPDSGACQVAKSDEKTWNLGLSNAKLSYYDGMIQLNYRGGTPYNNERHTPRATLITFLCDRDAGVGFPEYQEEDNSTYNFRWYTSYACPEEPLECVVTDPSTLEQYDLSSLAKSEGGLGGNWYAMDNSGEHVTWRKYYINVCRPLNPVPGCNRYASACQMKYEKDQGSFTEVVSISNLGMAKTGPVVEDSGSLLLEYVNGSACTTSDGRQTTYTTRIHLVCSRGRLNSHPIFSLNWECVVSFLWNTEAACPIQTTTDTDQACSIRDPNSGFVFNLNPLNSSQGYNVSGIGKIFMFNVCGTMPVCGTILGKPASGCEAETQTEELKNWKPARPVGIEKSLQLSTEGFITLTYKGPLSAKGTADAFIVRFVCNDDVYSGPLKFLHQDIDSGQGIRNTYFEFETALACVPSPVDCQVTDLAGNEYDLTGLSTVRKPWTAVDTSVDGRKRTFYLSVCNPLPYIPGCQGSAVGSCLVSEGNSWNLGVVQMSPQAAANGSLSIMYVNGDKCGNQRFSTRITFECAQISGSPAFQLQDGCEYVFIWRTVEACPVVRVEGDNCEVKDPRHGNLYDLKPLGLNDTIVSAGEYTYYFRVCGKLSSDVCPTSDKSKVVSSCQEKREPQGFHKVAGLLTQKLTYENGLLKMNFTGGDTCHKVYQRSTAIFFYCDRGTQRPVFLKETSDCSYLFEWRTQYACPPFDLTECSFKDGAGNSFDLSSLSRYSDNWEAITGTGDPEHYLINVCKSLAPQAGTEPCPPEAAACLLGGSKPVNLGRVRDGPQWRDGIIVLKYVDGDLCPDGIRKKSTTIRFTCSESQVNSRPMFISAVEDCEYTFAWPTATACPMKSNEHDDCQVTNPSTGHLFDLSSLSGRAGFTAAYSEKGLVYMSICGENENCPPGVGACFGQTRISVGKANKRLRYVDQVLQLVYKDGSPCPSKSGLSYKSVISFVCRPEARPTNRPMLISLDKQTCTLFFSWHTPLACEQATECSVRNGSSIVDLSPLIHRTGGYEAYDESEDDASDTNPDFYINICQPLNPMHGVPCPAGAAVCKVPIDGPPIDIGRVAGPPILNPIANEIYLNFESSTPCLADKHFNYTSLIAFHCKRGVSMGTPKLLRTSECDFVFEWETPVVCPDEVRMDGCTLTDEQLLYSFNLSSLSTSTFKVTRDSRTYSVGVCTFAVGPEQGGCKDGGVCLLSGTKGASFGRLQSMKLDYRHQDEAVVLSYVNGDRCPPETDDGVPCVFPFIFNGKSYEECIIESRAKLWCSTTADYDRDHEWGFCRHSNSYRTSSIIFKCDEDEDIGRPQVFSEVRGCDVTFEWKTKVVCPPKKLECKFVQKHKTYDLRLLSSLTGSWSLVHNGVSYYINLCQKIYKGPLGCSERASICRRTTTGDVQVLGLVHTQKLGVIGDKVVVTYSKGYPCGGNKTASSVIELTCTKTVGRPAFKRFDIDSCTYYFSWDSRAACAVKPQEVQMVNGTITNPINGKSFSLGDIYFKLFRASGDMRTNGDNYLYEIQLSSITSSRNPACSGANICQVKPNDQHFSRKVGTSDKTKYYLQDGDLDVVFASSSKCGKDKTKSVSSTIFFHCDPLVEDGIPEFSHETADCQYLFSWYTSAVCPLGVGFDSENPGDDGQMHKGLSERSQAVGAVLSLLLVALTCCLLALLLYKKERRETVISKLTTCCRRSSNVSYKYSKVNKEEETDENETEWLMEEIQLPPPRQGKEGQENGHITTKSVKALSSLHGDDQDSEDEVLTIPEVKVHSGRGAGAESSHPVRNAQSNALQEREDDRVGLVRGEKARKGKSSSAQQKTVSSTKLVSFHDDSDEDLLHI

Structure (SMILES)	GALC enzyme activity in culture supernatant ([1]; Day 5, normal cell) [nmol/h/µL]	total β-Hex enzyme activity in culture supernatant ([1]; Day 5, normal cell) [nmol/h/µL]	α-Fuc enzyme activity in culture supernatant ([1]; Day 5, normal cell) [nmol/h/µL]	α-Gal enzyme activity in culture supernatant ([1]; Day 5, normal cell) [nmol/h/µL]	α-Gluc enzyme activity in culture supernatant ([1]; Day 5, normal cell) [nmol/h/µL]	α-Iduro enzyme activity in culture supernatant ([1]; Day 5, normal cell) [nmol/h/µL]	α-Man enzyme activity in culture supernatant ([1]; Day 5, normal cell) [nmol/h/µL]	β-Gal enzyme activity in culture supernatant ([1]; Day 5, normal cell) [nmol/h/µL]	β-Gluc enzyme activity in culture supernatant ([1]; Day 5, normal cell) [nmol/h/µL]	β-Glucuro enzyme activity in culture supernatant ([1]; Day 5, normal cell) [nmol/h/µL]	β-Hex A enzyme activity in culture supernatant ([1]; Day 5, normal cell) [nmol/h/µL]	GALC enzyme activity in culture supernatant ([1]; Day 7, normal cell) [nmol/h/µL]	total β-Hex enzyme activity in culture supernatant ([1]; Day 7, normal cell) [nmol/h/µL]	α-Fuc enzyme activity in culture supernatant ([1]; Day 7, normal cell) [nmol/h/µL]	α-Gal enzyme activity in culture supernatant ([1]; Day 7, normal cell) [nmol/h/µL]	α-Gluc enzyme activity in culture supernatant ([1]; Day 7, normal cell) [nmol/h/µL]	α-Iduro enzyme activity in culture supernatant ([1]; Day 7, normal cell) [nmol/h/µL]	α-Man enzyme activity in culture supernatant ([1]; Day 7, normal cell) [nmol/h/µL]	β-Gal enzyme activity in culture supernatant ([1]; Day 7, normal cell) [nmol/h/µL]	excretion of group of lysosomal enzymes compared with no reagent added ([1]; normal skin fibroblast)	also measured
CO/C1=C\C(C)=C\[C@@H](C)[C@@H](O)[C@@H](C)C/C(C)=C/C=C/[C@H](OC)[C@@H]([C@@H](C)[C@@H](O)[C@H](C)[C@@]2(O)C[C@@H](O)[C@H](C)[C@@H](C(C)C)O2)OC1=O [Bafilo, bafilomycin A1]	0.64	437.7	3.49	0	1.13	0.57	100.4	4.65	3.97	4.07	18.9	0.69	300.5	3.97	0.91	2.44	0.64	123.9	2.93	excreted in larger amounts	β-Gluc enzyme activity in culture supernatant ([1]; Day 7, normal cell): 8.65 nmol/h/µL; β-Glucuro enzyme activity in culture supernatant ([1]; Day 7, normal cell): 8.03 nmol/h/µL; β-Hex A enzyme activity in culture supernatant ([1]; Day 7, normal cell): 22.5 nmol/h/µL
CCN(CC)CCCC(C)Nc1ccnc2cc(Cl)ccc12 (centres unmarked) [CQ, chloroquine]																				excreted in larger amounts	
Cl.N [NH4Cl, ammonium chloride]	0.55	736.1	6.68	0	1.92	3.61	137.1	8.20	4.53	3.85	67.0	0.50	1239.2	5.70	0.84	4.51	13.90	200.0	11.65	excreted in larger amounts	β-Gluc enzyme activity in culture supernatant ([1]; Day 7, normal cell): 5.39 nmol/h/µL; β-Glucuro enzyme activity in culture supernatant ([1]; Day 7, normal cell): 12.78 nmol/h/µL; β-Hex A enzyme activity in culture supernatant ([1]; Day 7, normal cell): 157.9 nmol/h/µL; kinds of lysosomal enzymes contained in culture supernatant ([1]; normal skin fibroblast, ammonium chloride 20 mM, seven days, FIG. 1): at least 10 kinds; excretion of group of lysosomal enzymes compared with no addition of ammonium chloride ([2]; COS-1 cell, Table 3): excreted in larger amounts; GALC enzyme activity in culture supernatant ([2]; Day 3, COS1, NH4Cl 20 mM): 0.41 nmol/h/µL; total β-Hex enzyme activity in culture supernatant ([2]; Day 3, COS1, NH4Cl 20 mM): 799.8 nmol/h/µL; α-Fuc enzyme activity in culture supernatant ([2]; Day 3, COS1, NH4Cl 20 mM): 24.2 nmol/h/µL; α-Gal enzyme activity in culture supernatant ([2]; Day 3, COS1, NH4Cl 20 mM): 10.60 nmol/h/µL; α-Gluc enzyme activity in culture supernatant ([2]; Day 3, COS1, NH4Cl 20 mM): 7.96 nmol/h/µL; α-Iduro enzyme activity in culture supernatant ([2]; Day 3, COS1, NH4Cl 20 mM): 13.60 nmol/h/µL; α-Man enzyme activity in culture supernatant ([2]; Day 3, COS1, NH4Cl 20 mM): 178.0 nmol/h/µL; β-Gal enzyme activity in culture supernatant ([2]; Day 3, COS1, NH4Cl 20 mM): 25.26 nmol/h/µL; β-Gluc enzyme activity in culture supernatant ([2]; Day 3, COS1, NH4Cl 20 mM): 6.64 nmol/h/µL; β-Glucuro enzyme activity in culture supernatant ([2]; Day 3, COS1, NH4Cl 20 mM): 21.37 nmol/h/µL; β-Hex A enzyme activity in culture supernatant ([2]; Day 3, COS1, NH4Cl 20 mM): 85.9 nmol/h/µL
O=C[C@@H](O)[C@@H](O)[C@H](O)[C@H](O)COP(=O)(O)O [mannose 6-phosphate]																					β-glucosidase in mannose 6-phosphate competitive inhibition test [3]: not to be affected; intracellular uptake of lysosomal enzymes ([3]; mannose 6-phosphate 0, 5 or 10 mM with lysosomal enzyme group sample): concentration-dependently and competitively inhibited
